In patent publication US10538535B2, “Antitumoral compounds” (priority 2017, dated 2020):
Like-named read-outs stand apart in the source and are kept apart here.

How the values were obtained:
[1] = MTD (Maximum Tolerated Dose) determination, single iv administration; type: in vivo; settings: female, mouse, in vivo; mice; iv/SD
Text: (§1) Female CD-1 or Athymic Nude-Fox1 nu/nu mice (Envigo) were utilized for all experiments. […] Animals were acclimated for five days prior to being individually tattoo-identified. Animal protocols were reviewed and approved according to the regional Institutional Animal Care and Use Committees.
(§2) Mice were randomly allocated into experimental groups and intravenously administered, once for the MTD (Maximum Tolerated Dose) determination or one administration a week during three consecutive weeks, for the MTMD (Maximum Tolerated Multiple Dose) determination study. The animals were administered with white formulation or with compound dissolved in the experimental formulation at different concentrations. The volume administered was always 10 mL/kg. Once administered, animals were monitored for clinical signs of systemic toxicity, changes in body weight and mortality up to 14 days after the administration.

[2] = MTMD (Maximum Tolerated Multiple Dose) determination, iv weekly x3; type: in vivo; settings: mice; iv/Q7dx3
Text: as §1, §2

HT1080 tumors = test: In vivo xenograft, human fibrosarcoma HT1080; settings: iv weekly, 32 and ET-736 0.5 mg/Kg
Method: (§3) Female athymic nu/nu mice (Harlan Laboratories Models, S. L. Barcelona, Spain or Envigo, Spain) were utilized for all experiments. Animal were housed in individually ventilated cages Sealsafe® Plus, Techniplast S.P.A.), up to ten per cage on a 12-hour light-dark cycle at 21-23° C. and 40-60% humidity. […] Animals were acclimated for at least 5 days prior to tumor implantation with a tumor cell suspension.
HT1080 cells were maintained in vitro at 37° C. with 5% CO2 in Minimum Essential Medium Eagle (MEME) (Sigma-Aldrich, Co). Each animal was orthotopically implanted into gastroecnemius muscle by an intramuscular injection using a 26 G needle and a 1 cc syringe at 4-6 weeks of age, with 10×10^6 HT1080 cells, suspended in serum free medium, without antibiotics.
(§4) Treatment tolerability was assessed by monitoring body weight evolution, clinical signs of systemic toxicity, as well as evidences of local damage in the injection site.
In xenograft studies with HT1080 cell line: • Total diameter (tumor+leg) measurements were determined by using digital caliper (Fowler Sylvac, S235PAT).
(§5) Treatments producing >20% lethality and/or 20% net body weight loss were considered toxic.

B16 melanoma = settings: cited from earlier work
Lewis lung carcinoma = settings: cited from earlier work
P388 lymphoma = settings: cited from earlier work

Method for MDA-MB-231 tumors: as §3
MDA-MB-231 cells were maintained in vitro at 37° C. with 5% CO2 in Dulbecco's Modified Eagle's Medium (Sigma-Aldrich, Co). Culture cells were passaged every 3 to 5 days upon reaching confluence.
as §4
In xenograft studies with other cell lines: • Tumor volume was calculated using the equation (a·b^2)/2, where a: length (longest diameter) and b: width (shortest diameter) were measured in mm by using digital caliper (Fowler Sylvac, S235PAT).
as §5

Structure (SMILES): COc1c(C)cc2c(c1O)[C@@H]1[C@@H]3[C@@H]4SC[C@]5(N[C@H](C)Cc6c5[nH]c5ccccc65)C(=O)OC[C@@H](c5c6c(c(C)c(OC(C)=O)c54)OCO6)N3[C@@H](O)[C@H](C2)N1C [C]
- MTD at 14 days [1]: 3 mg/kg
- MTMD [2]: 3.0 mg/kg
- Median Tumor Volume (MDA-MB-231 tumors; iv, 3 mg/kg, 0 h): 149.4 mm^3
- Median Tumor Volume (MDA-MB-231 tumors; iv, 3 mg/kg, 48 h): 217.1 mm^3
- Median Tumor Volume (MDA-MB-231 tumors; iv, 3 mg/kg, 120 h): 281.3 mm^3
- Median Tumor Volume (MDA-MB-231 tumors; iv, 3 mg/kg, 168 h): 338.6 mm^3
- Median Tumor Volume (MDA-MB-231 tumors; iv, 3 mg/kg, 336 h): 436.9 mm^3
- Median Tumor Volume (MDA-MB-231 tumors; iv, 3 mg/kg, 384 h): 585.7 mm^3
- Median Tumor Volume (MDA-MB-231 tumors; iv, 3 mg/kg, 456 h): 774.7 mm^3
- Median Tumor Volume (MDA-MB-231 tumors; iv, 3 mg/kg, 504 h): 965.9 mm^3
- Median Tumor Volume (MDA-MB-231 tumors; iv, 3 mg/kg, 552 h): 1215.2 mm^3
- Median Tumor Volume (MDA-MB-231 tumors; iv, 3 mg/kg, 672 h): 1785.3 mm^3
- Median Tumor Volume (MDA-MB-231 tumors; iv, 3 mg/kg, 720 h): 2037.1 mm^3

Structure (SMILES): COc1c(C)cc2c(c1O)[C@@H]1[C@@H]3[C@@H]4SC[C@]5(NCCc6c5oc5ccccc65)C(=O)OC[C@@H](c5c6c(c(C)c(OC(C)=O)c54)OCO6)N3[C@@H](O)[C@H](C2)N1C [Compound 32]
- MTD at 14 days [1]: 0.5 mg/kg
- MTMD [2]: 0.5 mg/kg
- Total diameter (tumor + leg) (HT1080 tumors; Table 60, Day 2): 8.9 mm
- Total diameter (tumor + leg) (HT1080 tumors; Table 60, Day 5): 8.2 mm
- Total diameter (tumor + leg) (HT1080 tumors; Table 60, Day 7): 8.8 mm
- Total diameter (tumor + leg) (HT1080 tumors; Table 60, Day 9): 10.0 mm
- Total diameter (tumor + leg) (HT1080 tumors; Table 60, Day 12): 8.8 mm
- Total diameter (tumor + leg) (HT1080 tumors; Table 60, Day 14): 10.8 mm
- Total diameter (tumor + leg) (HT1080 tumors; Table 60, Day 16): 11.8 mm
- Total diameter (tumor + leg) (HT1080 tumors; Table 60, Day 19): 12.0 mm
- Total diameter (tumor + leg) (HT1080 tumors; Table 60, Day 21): 14.0 mm
- Total diameter (tumor + leg) (HT1080 tumors; Table 60, Day 23): 13.8 mm
- Total diameter (tumor + leg) (HT1080 tumors; Table 60, Day 27): 13.6 mm
- Total diameter (tumor + leg) (HT1080 tumors; Table 60, Day 30): 15.5 mm
- Total diameter (tumor + leg) (HT1080 tumors; Table 60, Day 33): 18.0 mm
- Median Tumor Volume (MDA-MB-231 tumors; iv, 0.5 mg/kg, 0 h): 150.2 mm^3
- Median Tumor Volume (MDA-MB-231 tumors; iv, 0.5 mg/kg, 48 h): 233.6 mm^3
- Median Tumor Volume (MDA-MB-231 tumors; iv, 0.5 mg/kg, 120 h): 310.6 mm^3
- Median Tumor Volume (MDA-MB-231 tumors; iv, 0.5 mg/kg, 168 h): 386.1 mm^3
- Median Tumor Volume (MDA-MB-231 tumors; iv, 0.5 mg/kg, 336 h): 560.3 mm^3
- Median Tumor Volume (MDA-MB-231 tumors; iv, 0.5 mg/kg, 384 h): 649.5 mm^3
- Median Tumor Volume (MDA-MB-231 tumors; iv, 0.5 mg/kg, 456 h): 853.0 mm^3
- Median Tumor Volume (MDA-MB-231 tumors; iv, 0.5 mg/kg, 504 h): 1017.5 mm^3
- Median Tumor Volume (MDA-MB-231 tumors; iv, 0.5 mg/kg, 552 h): 1263.2 mm^3
- Median Tumor Volume (MDA-MB-231 tumors; iv, 0.5 mg/kg, 672 h): 1726.6 mm^3
- Median Tumor Volume (MDA-MB-231 tumors; iv, 0.5 mg/kg, 720 h): 1892.6 mm^3

Structure (SMILES): COc1c(C)cc2c(c1O)[C@@H]1[C@@H]3[C@@H]4SC[C@]5(N[C@@H](C)Cc6c5[nH]c5ccccc65)C(=O)OC[C@@H](c5c6c(c(C)c(OC(C)=O)c54)OCO6)N3[C@@H](O)[C@H](C2)N1C [D]
- Median Tumor Volume (MDA-MB-231 tumors; Table 22, Day 0, iv Days 0, 7, 14): 129.5 mm^3
- Median Tumor Volume (MDA-MB-231 tumors; Table 22, Day 7, iv Days 0, 7, 14): 147.9 mm^3
- Median Tumor Volume (MDA-MB-231 tumors; Table 22, Day 14, iv Days 0, 7, 14): 186.4 mm^3
- Median Tumor Volume (MDA-MB-231 tumors; Table 22, Day 21, iv Days 0, 7, 14): 136.5 mm^3
- Median Tumor Volume (MDA-MB-231 tumors; Table 22, Day 28, iv Days 0, 7, 14): 290.7 mm^3
- Median Tumor Volume (MDA-MB-231 tumors; Table 22, Day 35, iv Days 0, 7, 14): 431.7 mm^3
- Median Tumor Volume (MDA-MB-231 tumors; Table 22, Day 42, iv Days 0, 7, 14): 770.1 mm^3
- Median Tumor Volume (MDA-MB-231 tumors; Table 22, Day 49, iv Days 0, 7, 14): 970.0 mm^3
- Median Tumor Volume (MDA-MB-231 tumors; Table 22, Day 56, iv Days 0, 7, 14): 1461.9 mm^3
- Median Tumor Volume (MDA-MB-231 tumors; Table 22, Day 63, iv Days 0, 7, 14): 1526.4 mm^3
- Median Tumor Volume (MDA-MB-231 tumors; iv, 0.5 mg/kg, 0 h): 149.6 mm^3
- Median Tumor Volume (MDA-MB-231 tumors; iv, 0.5 mg/kg, 48 h): 217.2 mm^3
- Median Tumor Volume (MDA-MB-231 tumors; iv, 0.5 mg/kg, 120 h): 284.5 mm^3
- Median Tumor Volume (MDA-MB-231 tumors; iv, 0.5 mg/kg, 168 h): 310.0 mm^3
- Median Tumor Volume (MDA-MB-231 tumors; iv, 0.5 mg/kg, 336 h): 237.7 mm^3
- Median Tumor Volume (MDA-MB-231 tumors; iv, 0.5 mg/kg, 384 h): 261.2 mm^3
- Median Tumor Volume (MDA-MB-231 tumors; iv, 0.5 mg/kg, 456 h): 251.3 mm^3
- Median Tumor Volume (MDA-MB-231 tumors; iv, 0.5 mg/kg, 504 h): 219.9 mm^3
- Median Tumor Volume (MDA-MB-231 tumors; iv, 0.5 mg/kg, 552 h): 221.8 mm^3
- Median Tumor Volume (MDA-MB-231 tumors; iv, 0.5 mg/kg, 672 h): 320.3 mm^3
- Median Tumor Volume (MDA-MB-231 tumors; iv, 0.5 mg/kg, 720 h): 401.6 mm^3
- Median Tumor Volume (MDA-MB-231 tumors; iv, 0.5 mg/kg, 840 h): 629.2 mm^3
- Median Tumor Volume (MDA-MB-231 tumors; iv, 0.5 mg/kg, 888 h): 670.7 mm^3
- Median Tumor Volume (MDA-MB-231 tumors; iv, 0.5 mg/kg, 960 h): 669.9 mm^3
- Median Tumor Volume (MDA-MB-231 tumors; iv, 0.5 mg/kg, 1056 h): 798.1 mm^3
- Median Tumor Volume (MDA-MB-231 tumors; iv, 0.5 mg/kg, 1128 h): 857.7 mm^3
- Median Tumor Volume (MDA-MB-231 tumors; iv, 0.5 mg/kg, 1176 h): 870.7 mm^3
- Median Tumor Volume (MDA-MB-231 tumors; iv, 0.5 mg/kg, 1224 h): 925.8 mm^3
- Median Tumor Volume (MDA-MB-231 tumors; iv, 0.5 mg/kg, 1296 h): 1005.4 mm^3
- Median Tumor Volume (MDA-MB-231 tumors; iv, 0.5 mg/kg, 1344 h): 1064.2 mm^3
- Median Tumor Volume (MDA-MB-231 tumors; iv, 0.5 mg/kg, 1392 h): 1235.6 mm^3
- Median Tumor Volume (MDA-MB-231 tumors; iv, 0.5 mg/kg, 1464 h): 1367.8 mm^3
- Median Tumor Volume (MDA-MB-231 tumors; iv, 0.5 mg/kg, 1512 h): 1553.7 mm^3

Structure (SMILES): COc1c(C)cc2c(c1O)[C@@H]1[C@@H]3[C@@H]4SC[C@]5(NCCc6c5[nH]c5ccccc65)C(=O)OC[C@@H](c5c6c(c(C)c(OC(C)=O)c54)OCO6)N3[C@@H](O)[C@H](C2)N1C [ET-736, Ecteinascidin 736]
- protection of mice in vivo (B16 melanoma): protects mice in vivo at very low concentrations
- protection of mice in vivo (Lewis lung carcinoma): protects mice in vivo at very low concentrations
- MTMD [2]: 0.5 mg/kg
- protection of mice in vivo (P388 lymphoma): protects mice in vivo at very low concentrations
- Total diameter (tumor + leg) (HT1080 tumors; Table 60, Day 2): 8.3 mm
- Total diameter (tumor + leg) (HT1080 tumors; Table 60, Day 5): 7.1 mm
- Total diameter (tumor + leg) (HT1080 tumors; Table 60, Day 7): 7.6 mm
- Total diameter (tumor + leg) (HT1080 tumors; Table 60, Day 9): 7.4 mm
- Total diameter (tumor + leg) (HT1080 tumors; Table 60, Day 12): 7.0 mm
- Total diameter (tumor + leg) (HT1080 tumors; Table 60, Day 14): 7.1 mm
- Total diameter (tumor + leg) (HT1080 tumors; Table 60, Day 16): 7.4 mm
- Total diameter (tumor + leg) (HT1080 tumors; Table 60, Day 19): 8.4 mm
- Total diameter (tumor + leg) (HT1080 tumors; Table 60, Day 21): 8.6 mm
- Total diameter (tumor + leg) (HT1080 tumors; Table 60, Day 23): 10.0 mm
- Total diameter (tumor + leg) (HT1080 tumors; Table 60, Day 27): 10.9 mm
- Total diameter (tumor + leg) (HT1080 tumors; Table 60, Day 30): 13.2 mm
- Total diameter (tumor + leg) (HT1080 tumors; Table 60, Day 33): 14.3 mm
- Total diameter (tumor + leg) (HT1080 tumors; Table 60, Day 35): 15.2 mm
- Total diameter (tumor + leg) (HT1080 tumors; Table 60, Day 37): 15.8 mm
- Total diameter (tumor + leg) (HT1080 tumors; Table 60, Day 40): 16.6 mm
- Total diameter (tumor + leg) (HT1080 tumors; Table 60, Day 42): 18.0 mm
- Median Tumor Volume (MDA-MB-231 tumors; iv, 0.5 mg/kg, 0 h): 150.0 mm^3
- Median Tumor Volume (MDA-MB-231 tumors; iv, 0.5 mg/kg, 48 h): 237.7 mm^3
- Median Tumor Volume (MDA-MB-231 tumors; iv, 0.5 mg/kg, 120 h): 302.1 mm^3
- Median Tumor Volume (MDA-MB-231 tumors; iv, 0.5 mg/kg, 168 h): 364.9 mm^3
- Median Tumor Volume (MDA-MB-231 tumors; iv, 0.5 mg/kg, 336 h): 398.3 mm^3
- Median Tumor Volume (MDA-MB-231 tumors; iv, 0.5 mg/kg, 384 h): 447.2 mm^3
- Median Tumor Volume (MDA-MB-231 tumors; iv, 0.5 mg/kg, 456 h): 485.0 mm^3
- Median Tumor Volume (MDA-MB-231 tumors; iv, 0.5 mg/kg, 504 h): 536.3 mm^3
- Median Tumor Volume (MDA-MB-231 tumors; iv, 0.5 mg/kg, 552 h): 669.8 mm^3
- Median Tumor Volume (MDA-MB-231 tumors; iv, 0.5 mg/kg, 672 h): 1046.1 mm^3
- Median Tumor Volume (MDA-MB-231 tumors; iv, 0.5 mg/kg, 720 h): 1315.9 mm^3
- Median Tumor Volume (MDA-MB-231 tumors; iv, 0.5 mg/kg, 840 h): 2007.7 mm^3
